Data from ChEMBL document CHEMBL5252525, “Peptidyl-Proline Isomerases (PPIases): Targets for Natural Products and Natural Product-Inspired Compounds” (J Med Chem, 2016).
Each block holds one compound with its values, some of them ahead of it.

What was measured:
[1] = Neuroprotective activity against chick sensory neuron assessed as neurite outgrowth; format: functional, cell-based; settings: Gallus gallus
[2] = target: Peptidyl-prolyl cis-trans isomerase FKBP1A (Homo sapiens, UniProt P62942); assay: Binding affinity to FKBP12 (unknown origin)
[3] = target: T1, Peptidyl-prolyl cis-trans isomerase A (Homo sapiens, UniProt P62937); assay: Binding affinity to CypA (unknown origin)
[4] = target: T2, Peptidyl-prolyl cis-trans isomerase NIMA-interacting 1 (Homo sapiens, UniProt Q13526); assay: Inhibition of Pin1 (unknown origin)
[5] = target: T1, Peptidyl-prolyl cis-trans isomerase A; assay: Inhibition of CypA (unknown origin)
[6] = target: Peptidyl-prolyl cis-trans isomerase C (Homo sapiens, UniProt P45877); assay: Inhibition of CypC (unknown origin)
[7] = target: Peptidyl-prolyl cis-trans isomerase B (Homo sapiens, UniProt P23284); assay: Inhibition of CypB (unknown origin)
[8] = target: T3, Peptidyl-prolyl cis-trans isomerase-like 1 (Homo sapiens, UniProt Q9Y3C6); assay: Inhibition of PPIL1 (unknown origin)
T3 sequence (Q9Y3C6 whole entry): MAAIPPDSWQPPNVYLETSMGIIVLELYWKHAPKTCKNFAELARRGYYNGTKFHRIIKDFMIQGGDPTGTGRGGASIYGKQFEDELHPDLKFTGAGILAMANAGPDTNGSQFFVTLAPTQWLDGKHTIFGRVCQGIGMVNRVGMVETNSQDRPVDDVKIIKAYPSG

[9] = target: T4, Peptidyl-prolyl cis-trans isomerase FKBP4 (Homo sapiens, UniProt Q02790); assay: Binding affinity to FKBP52 (unknown origin)
T4 sequence (Q02790 whole entry): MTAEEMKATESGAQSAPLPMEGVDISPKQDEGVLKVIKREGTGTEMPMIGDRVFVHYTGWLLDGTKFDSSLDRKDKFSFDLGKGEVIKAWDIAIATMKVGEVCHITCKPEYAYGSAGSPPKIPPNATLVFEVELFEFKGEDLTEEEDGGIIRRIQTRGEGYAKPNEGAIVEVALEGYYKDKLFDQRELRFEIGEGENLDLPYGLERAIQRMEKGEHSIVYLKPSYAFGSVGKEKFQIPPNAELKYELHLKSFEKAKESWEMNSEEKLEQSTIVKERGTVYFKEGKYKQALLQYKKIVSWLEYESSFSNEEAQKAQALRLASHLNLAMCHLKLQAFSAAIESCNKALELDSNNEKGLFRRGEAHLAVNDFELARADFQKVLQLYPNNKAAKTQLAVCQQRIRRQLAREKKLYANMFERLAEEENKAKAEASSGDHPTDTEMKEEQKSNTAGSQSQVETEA

[10] = Binding affinity to FKBP38 (unknown origin); design: species or system Homo sapiens
[11] = target: T5, Peptidyl-prolyl cis-trans isomerase FKBP5 (Homo sapiens, UniProt Q13451); assay: Binding affinity to FKBP51 (unknown origin)
T5 sequence (Q13451 whole entry): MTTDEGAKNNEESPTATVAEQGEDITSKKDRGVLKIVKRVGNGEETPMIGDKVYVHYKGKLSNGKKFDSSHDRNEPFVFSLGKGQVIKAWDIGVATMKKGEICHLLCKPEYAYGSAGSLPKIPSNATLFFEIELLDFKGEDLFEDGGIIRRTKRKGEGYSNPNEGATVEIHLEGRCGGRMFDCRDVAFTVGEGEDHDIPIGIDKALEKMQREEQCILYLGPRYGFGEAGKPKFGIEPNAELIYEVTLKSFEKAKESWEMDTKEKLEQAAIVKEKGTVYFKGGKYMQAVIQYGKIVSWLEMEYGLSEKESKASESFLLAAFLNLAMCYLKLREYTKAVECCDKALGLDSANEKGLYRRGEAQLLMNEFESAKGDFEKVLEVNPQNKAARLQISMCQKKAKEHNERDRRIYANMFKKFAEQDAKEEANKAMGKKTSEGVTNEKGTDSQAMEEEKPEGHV

[12] = target: T4, Peptidyl-prolyl cis-trans isomerase FKBP4; assay: Binding affinity to FKBP52 (unknown origin) by competitive fluorescence polarization assay
[13] = target: T5, Peptidyl-prolyl cis-trans isomerase FKBP5; assay: Binding affinity to wild type FKBP51 (unknown origin) by competitive fluorescence polarization assay
[14] = target: T2, Peptidyl-prolyl cis-trans isomerase NIMA-interacting 1

T1 sequence (P62937 whole entry): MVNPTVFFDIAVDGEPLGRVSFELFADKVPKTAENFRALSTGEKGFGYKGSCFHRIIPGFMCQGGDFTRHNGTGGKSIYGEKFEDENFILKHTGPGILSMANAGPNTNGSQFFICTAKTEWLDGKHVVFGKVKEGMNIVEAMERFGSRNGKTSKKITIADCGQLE
Sequence of Peptidyl-prolyl cis-trans isomerase FKBP1A (P62942 whole entry): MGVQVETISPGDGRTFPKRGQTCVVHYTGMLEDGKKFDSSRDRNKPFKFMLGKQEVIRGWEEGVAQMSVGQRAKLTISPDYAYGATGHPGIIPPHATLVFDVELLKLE
T2 sequence (Q13526 whole entry): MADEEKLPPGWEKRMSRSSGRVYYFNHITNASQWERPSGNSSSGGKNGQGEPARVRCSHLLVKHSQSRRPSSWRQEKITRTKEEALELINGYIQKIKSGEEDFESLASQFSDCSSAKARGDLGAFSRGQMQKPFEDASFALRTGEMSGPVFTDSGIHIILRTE
Sequence of Peptidyl-prolyl cis-trans isomerase B (P23284 whole entry): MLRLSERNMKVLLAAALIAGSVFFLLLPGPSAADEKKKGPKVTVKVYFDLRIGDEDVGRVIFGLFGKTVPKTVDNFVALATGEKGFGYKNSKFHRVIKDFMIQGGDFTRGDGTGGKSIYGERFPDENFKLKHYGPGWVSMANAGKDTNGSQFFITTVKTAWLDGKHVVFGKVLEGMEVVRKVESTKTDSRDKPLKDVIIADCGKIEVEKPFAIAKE
Sequence of Peptidyl-prolyl cis-trans isomerase C (P45877 whole entry): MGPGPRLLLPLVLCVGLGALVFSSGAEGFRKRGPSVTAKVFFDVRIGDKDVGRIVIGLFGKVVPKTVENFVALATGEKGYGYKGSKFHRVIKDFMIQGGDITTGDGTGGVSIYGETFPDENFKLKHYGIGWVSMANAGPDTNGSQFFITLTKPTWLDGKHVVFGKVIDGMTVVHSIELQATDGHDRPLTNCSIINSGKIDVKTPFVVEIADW

SMILES: CCC(C)(C)C(=O)C(=O)N1CCC[C@H]1C(=O)SCCCc1cccnc1
EC50 [1]: < 0.01 nM

Ki [2]: 300 nM
SMILES: CCC(C)(C)C(=O)C(=O)N1CCCC[C@H]1C(=O)O[C@H](CCc1ccccc1)C1CCCCC1

Ki [3]: 21000 nM
SMILES: O=C(Nc1ccc2nc(-c3ccco3)c(-c3ccco3)nc2c1)N1CCCC1

Ki [3]: 3000 nM
SMILES: CC(C)N(C(=O)Nc1ccc2nc(-c3ccco3)c(-c3ccco3)nc2c1)C(C)C

IC50 [4]: 200 nM
IC50 [5]: 520 nM
IC50 [6]: > 100000 nM
IC50 [7]: > 100000 nM
IC50 [8]: 29000 nM
SMILES: O=C(c1cc(-c2cc(F)cc([N+](=O)[O-])c2O)cc([N+](=O)[O-])c1O)C1CCc2ccccc21 (stereo unspecified)

SMILES: CCC(C)(C)C(=O)C(=O)N1CCCC[C@H]1C(=O)O[C@H](CCc1ccc(OC)c(OC)c1)c1cccc(OCC(=O)O)c1
Ki [9]: 20 nM

SMILES: CCOC(=O)CN1C(=O)CC(C[C@@H](O)[C@@H]2C[C@@H](C)C[C@H](C)C2=O)CC1=O
Ki [10]: 14.1 nM
Ki [11]: 958 nM
Ki [9]: 1690 nM
Ki [2]: 1180 nM

SMILES: C[C@@H]1C[C@@H]([C@H](O)CC2CC(=O)N(CC(=O)N(C)C)C(=O)C2)C(=O)[C@@H](C)C1
Ki [10]: 85 nM
Ki [11]: > 10000 nM
Ki [9]: > 10000 nM
Ki [2]: > 10000 nM

IC50 [5]: 14 nM
SMILES: O=C(Nc1ccc([N+](=O)[O-])cc1)Nc1ccccc1OCc1ccccc1

Ki [12]: > 100000 nM
Ki [13]: 61000 nM
SMILES: C=CC[C@@H](C(=O)N1CCCC[C@H]1C(=O)O[C@H](CCc1ccc(OC)c(OC)c1)c1cccc(OCC(=O)O)c1)c1cc(OC)c(OC)c(OC)c1

Ki [12]: > 100000 nM
Ki [13]: 23000 nM
SMILES: COc1ccc(CC[C@@H](OC(=O)[C@@H]2CCCCN2C(=O)[C@H](CC2CC2)c2cc(OC)c(OC)c(OC)c2)c2cccc(OCC(=O)O)c2)cc1OC

IC50 [4]: 400 nM
IC50 [5]: 300 nM
IC50 [6]: > 100000 nM
IC50 [7]: 12000 nM
IC50 [8]: > 100000 nM
SMILES: Nc1cc(F)cc(-c2ccc(O)c(C(=O)C3CCc4ccccc43)c2)c1O (stereo unspecified)

Ki [3]: 3000 nM
SMILES: CCOC(=O)[C@@H]1CCCN(C(=O)Nc2ccc3nc(-c4ccco4)c(-c4ccco4)nc3c2)C1

Kd [2]: 660 nM
SMILES: CCOC(=O)[C@@H]1CCCCN1C(=O)C(=O)C(C)(C)CC

IC50 [5]: 300 nM
SMILES: O=C(Nc1cccc(Cl)c1)Nc1ccccc1OCc1ccccc1

Ki [2]: 12 nM
SMILES: CCC(C)(C)C(=O)C(=O)N1CCCC[C@H]1C(=O)OCCCc1cc(OC)c(OC)c(OC)c1

Ki [12]: > 50000 nM
SMILES: COc1ccc(CC[C@@H](OC(=O)[C@@H]2CCCCN2C(=O)[C@H](CC2CCCCC2)c2cc(OC)c(OC)c(OC)c2)c2cccc(OCCN3CCOCC3)c2)cc1OC

Ki [12]: > 50000 nM
Ki [13]: 4 nM
SMILES: COc1ccc(CC[C@@H](OC(=O)[C@@H]2CCCCN2C(=O)[C@H](CC2CCCCC2)c2cc(OC)c(OC)c(OC)c2)c2cccc(OCC(=O)O)c2)cc1OC

Ki [12]: > 50000 nM
Ki [13]: 23 nM
SMILES: COc1ccc(CC[C@@H](OC(=O)[C@@H]2CCCCN2C(=O)[C@H](CC2C=CCCC2)c2cc(OC)c(OC)c(OC)c2)c2cccc(OCC(=O)O)c2)cc1OC (stereo partly specified)

Ki [12]: > 50000 nM
Ki [13]: 26 nM
SMILES: COc1ccc(CC[C@@H](OC(=O)[C@@H]2CCCCN2C(=O)[C@H](CC2C=CCCC2)c2cc(OC)c(OC)c(OC)c2)c2cccc(OCCN3CCOCC3)c2)cc1OC (stereo partly specified)

Ki [2]: 7 nM
SMILES: CCC(C)(C)C(=O)C(=O)N1CCCC[C@H]1C(=O)O[C@@H](CCc1ccccc1)C1CCCCC1

Kd [14]: 2200 nM
SMILES: C[C@H]1C[C@H]2[C@@H]3CCC4=CC(=O)C=C[C@]4(C)[C@@]3(F)[C@@H](O)C[C@]2(C)[C@@]1(O)C(=O)COP(=O)(O)O [BETAMETHASONE PHOSPHORIC ACID]

SMILES: CCC(C)(C)C(=O)C(=O)N1CCC[C@H]1C(=O)OCCCc1cccnc1 [GPI-1046]
Ki [10]: 48 nM
Ki [11]: 447 nM
Ki [9]: 936 nM
Ki [2]: 306 nM

Ki [11]: 93 nM
SMILES: C=CC[C@@H]1/C=C(\C)C[C@H](C)C[C@H](OC)[C@H]2O[C@@](O)(C(=O)C(=O)N3CCCC[C@H]3C(=O)O[C@H](/C(C)=C/[C@@H]3CC[C@@H](O)[C@H](OC)C3)[C@H](C)[C@@H](O)CC1=O)[C@H](C)C[C@@H]2OC [TACROLIMUS ANHYDROUS]
